In experiment [1] the target is Substance-P receptor (Homo sapiens, UniProt P25103). As to the kind of experiment: Antagonist activity for Tachykinin receptor 1 as displacement of [3H]-Substance P in human IM-9 cells. Format: functional, cell-based.
The test system of experiment [2] is Cavia porcellus. As to the kind of experiment: Compound was tested for blockade of locomotor activity in the guinea pig elicited by icv administered Sar9Met(O2)-SP. Conditions: central, read-out: ID50 (the source's name). Format: functional.
Experiment [3] is filed under the species Cavia porcellus. Description: Inhibition of aerosolized capsaicin-induced plasma protein extravasation in guinea pig ureter by peroral dose. Format: functional. Conditions: read-out: ID50 (the source's name).
The species named for experiment [4] is Cavia porcellus. As to the kind of experiment: Inhibition of aerosolized capsaicin-induced plasma protein extravasation in guinea pig lung by peroral dose. It is filed as functional. The conditions noted are these: read-out: ID50 (the source's name).
Experiment [5] is filed under the species Cavia porcellus. As to the kind of experiment: Compound tested for SP-induced plasma extravasation in guinea pig perorally. Format: functional. Conditions: po, read-out: ID50 (the source's name).
The test system of experiment [6] is Cavia porcellus. Description: Compound was tested for blockade of locomotor activity in guinea pig, elicited by icv administered Sar9Met(O2)-SP. It is filed as functional. The conditions noted are these: central, read-out: ID50 (the source's name).
Experiment [7] is filed under the species Cavia porcellus. As to the kind of experiment: Inhibition of capsaicin-induced plasma extravasation in guinea pig ureter by peroral dose. It is filed as functional. Conditions: po, read-out: ID50 (the source's name).
Experiment [8] is filed under the species Cavia porcellus. As to the kind of experiment: Compound tested for blockade of cisplatin-induced emesis in guinea pig perorally. Format: functional. The conditions noted are these: po, read-out: ID50 (the source's name).

SMILES strings stand for the structures.

Sequence of Substance-P receptor (P25103 whole entry): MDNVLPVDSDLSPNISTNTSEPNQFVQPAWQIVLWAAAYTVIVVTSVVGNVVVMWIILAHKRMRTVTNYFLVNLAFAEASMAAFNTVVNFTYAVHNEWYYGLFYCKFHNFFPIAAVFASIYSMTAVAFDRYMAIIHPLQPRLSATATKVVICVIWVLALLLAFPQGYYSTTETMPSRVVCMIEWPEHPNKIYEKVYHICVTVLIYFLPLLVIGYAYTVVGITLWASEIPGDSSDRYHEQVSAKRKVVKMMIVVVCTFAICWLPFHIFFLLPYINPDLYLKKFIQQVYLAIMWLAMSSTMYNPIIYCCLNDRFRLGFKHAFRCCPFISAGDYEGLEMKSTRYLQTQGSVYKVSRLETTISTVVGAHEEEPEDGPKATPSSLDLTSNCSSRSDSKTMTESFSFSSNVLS

As to `COc1ccc(Cl)cc1CN[C@H]1CCCN[C@H]1c1ccccc1`, the IC50 – broadly, the concentration that inhibits the measured activity by half – in experiment [1] came out at 0.14 nM. Take `COc1ccccc1CN[C@H]1CCCN[C@H]1c1ccccc1` [CP-99994]: the ED50 in experiment [2] turned out to be 0.6 mg/kg; in experiment [3] it was 2.9 mg/kg; in experiment [4], 5 mg/kg; in experiment [5] it was 31 mg/kg.

For `CC(C)Oc1ccccc1CN[C@H]1CCCN[C@H]1c1ccccc1`, the IC50 in experiment [1] came out at 0.46 nM. In experiment [1], `FC(F)Oc1ccccc1CN[C@H]1CCCN[C@H]1c1ccccc1` registered an IC50 of 0.41 nM. Still for that read-out and setting: the figure for `COc1ccc(N(C)S(C)(=O)=O)cc1CN[C@H]1CCCN[C@H]1c1ccccc1` is 0.11 nM. For the compound `CCOc1ccc(OC(F)(F)F)cc1CN[C@H]1CCCN[C@H]1c1ccccc1`, in experiment [1], the IC50 was determined as 0.14 nM. The same measure, in the same setting: the same measure for `COc1ccc(N(C)C)cc1CN[C@H]1CCCN[C@H]1c1ccccc1`: 0.56 nM; for `COc1ccc(OC)c(CN[C@H]2CCCN[C@H]2c2ccccc2)c1`: 0.09 nM. Consider `COc1ccc(OC(F)(F)F)cc1CN[C@H]1CCCN[C@H]1c1ccccc1`, for which the ED50 in experiment [6] came to 0.01 mg/kg; in experiment [4] it was 0.01 mg/kg; in experiment [7], 0.02 mg/kg; in experiment [5], 0.05 mg/kg; in experiment [8] it was 0.08 mg/kg. Turning to `Oc1ccc(OC(F)(F)F)cc1CN[C@H]1CCCN[C@H]1c1ccccc1`, the IC50 in experiment [1] came out at 10.9 nM.

Take `FC(F)(F)Oc1ccccc1CN[C@H]1CCCN[C@H]1c1ccccc1`: the IC50 in experiment [1] came to 0.8 nM. With `CC(C)Oc1ccc(OC(F)(F)F)cc1CN[C@H]1CCCN[C@H]1c1ccccc1`, the IC50 in experiment [1] came to 0.18 nM.
